From patent publication US20210230213A1, “ARAMCHOL SALTS” (GALMED RESEARCH AND DEVELOPMENT LTD., priority 2013, published 2021)
Values after ≈ are worked out from the molar mass of the structure shown. Structures can show the parent of a compound that is named as a salt. Where two headings read alike, the source gives them in different places.

Key:
[1] = Dynamic Vapour Sorption (DVS); assay type: physicochemical
Procedure: The samples was weighed in a glass pan, typically 20-30 mg, and equilibrated at 0% relative humidity (RH). After the material had dried, the RH was increased with 10% per step for 1 hour per increment, ending at […].
The software used for data collection was DVSWin v3.01 No Video. Data analysis was performed using DVS Standard Analysis Suite v6.3.0 (Standard).
After completion of sorption cycle, the material was dried. XRPD was performed before and after DVS.

[2] = In vivo permeability / PK after intrajejunal administration in cannulated rats (Example 7); set-up: species or system male Wistar rats; conditions: rat; for Cmax: 100 mg/kg (based on free acid) in PBS 30 mg/mL, plasma Aramchol (free acid); for Tmax: median
Procedure: An in vivo permeability study of Aramchol salts was performed in male Wistar rats cannulated in the jugular vein and in the jejunum. Intestinal cannulation was performed in order to bypass protonation of Aramchol salts in acidic gastric pH. Aramchol salts solubilized in PBS (30 mg/mL) were administered to rats intestine (jejunum) in a dose of 100 mg/kg (based on free acid), via a cannula inserted into the proximal side of the jejunum. A suspension of Aramchol free acid (in PBS, 30 mg/mL) was administered via the same route and was used as control. Blood samples were withdrawn via a cannula inserted into jugular vein at pre-determined time points (pre-dose, 1 hr, 2 hr, 4 hr, 8 hr, 12 hr, 24 hr post dose). Plasma concentrations of Aramchol (free acid) were measured using a liquid chromatography-tandem mass spectrometry (LC-MS-MS) method by Analyst Bioanalytical Laboratories, Israel. All PK parameters were calculated using non-compartmental analysis. Only those plasma concentrations equal to or greater than the lower limit of quantitation (LOQ) (48.66 ng/mL) were used in the analysis. Plasma concentrations <LOQ that occurred from pre-dose to the first concentration ≥LOQ were treated as 0. Actual sampling times were used for all pharmacokinetic analyses. The following PK parameters were calculated: maximum plasma concentration (Cmax), time to Cmax (Tmax), area under the plasma concentration-time curve from time of administration until the last plasma concentration (AUC0-4), AUC/dose, elimination half-life (t½). Cmax and Tmax were taken directly from the data. Area under the curve from zero to the final sample with a concentration ≥LOQ. AUC0-4 was calculated using the linear trapezoidal method.

[3] = Fill weight of size 00 HPMC capsule; assay type: physicochemical; conditions: hard HPMC capsule size 00, filled as is without tapping
Excerpt: Aramchol (free acid), and the three salts were filled as are, into hard HPMC (Hypromellose; Capsule size 00 (CapsCanada, ON, Canada) without taping, fill weight is presented in table 9.

[4] = Saturated solubility in buffer solutions and bio-relevant media at 37° C. (Example 6); assay type: physicochemical; conditions: for solubility at 24 h / solubility at 30 min: thermodynamic from solid
[5] = Stability of Aramchol free acid; assay type: physicochemical; conditions: 6 months 40° C./75% RH; 12 months 25° C./60% RH; 30° C./65% RH
Procedure: For Aramchol free acid, 6 months stability data have been generated at 40° C./75% relative humidity and for 12 months at real time 25° C./60% relative humidity and also at the intermediate conditions of 30° C./65% relative humidity.

Bulk and tapped density = assay type: physicochemical
Excerpt: Measurements of tapped and bulk densities are used to predict the flow properties and compressibility of powders. These two properties are important for manufacture of solid dosage formulations, such as tablets and capsules. Compounds with low values of tapped and bulk densities may be subject to difficulties in tablet compression, and therefore may require additional processing for improving flow properties. […] Therefore, to improve flow properties a wet granulation process is used prior to tablet compression.

[6] = Solubility of Aramchol (free acid) in aqueous media; assay type: physicochemical
in vivo = conditions: dog, in vivo
Procedure: Capsules containing 100 mg of Aramchol were dosed to dogs as either the free acid or the meglumine salt.
The complete data-set across all animals and time-points for each dose form (free acid or meglumine salt) were fit to single compartment PK models with first order rate of absorption Ka (h−1) and elimination parameterised by CL and V (rate of elimination=CL/V, h−1). For the meglumine salt group, the first dose data for M5 was removed.
Capsules containing 100 mg of Aramchol were dosed to dogs as either the free acid or the meglumine salt BID. […] A clinical study that investigated the plasma concentration of Aramchol after oral dosing of 300 mg BID at steady state was conducted in 16 healthy volunteers.

[7] = Clinical study, plasma Aramchol at steady state after 300 mg BID; assay type: in vivo, humans; conditions: human, po
[8] = Twice daily administration for 10 days of Aramchol and Aramchol meglumine in humans (Example 9); assay type: in vivo; conditions: free acid 300 mg, meglumine salt 383 mg
Procedure: 300 mg aramchol free acid were administered to human subjects twice daily, and 383 mg aramchol meglumine salt were administered to human subjects twice daily, as detailed in FIG. 13.

physchem = conditions: 50 °C, organic solvent or mixture
[9] = Aqueous solubility at 20° C., shake-flask, stepwise water addition (Example 2); assay type: physicochemical; conditions: for solubility: water, 20 °C, thermodynamic from solid, 20° C.
Procedure: The Aramchol salts of the present invention were further assessed for their solubility in water. […] 5 mg of each salt was weighed. Water was added stepwise until a clear solution was obtained (Table 2, solubility in water). The pH of each solution was measured (Table 2, pH after solubility).

[10] = water, Aramchol free acid and base 1:1, 50° C.
[11] = 100 mg/kg, mean ± standard error
[12] = RH raised from 0% in 10% steps to 95% RH, stepwise, reversible
[13] = Demi-Water (pH 7.8), 24 h, 37° C.
[14] = Phosphate buffer pH 7.0, 24 h, 37° C.
[15] = FaSSIF (pH 6.5), 30 min, 37° C.
[16] = FeSSIF (pH 5.0), 30 min, 37° C.
[17] = male, Wistar, plasma, 100 mg/kg, mean ± standard error
[18] = male, Wistar, plasma, 100 mg/kg, mean ± standard error, read-out: AUC 0-t
[19] = male, Wistar, plasma, 100 mg/kg, read-out: Tmax
[20] = male, Wistar, mean ± standard error, read-out: Cmax

Compound: 2-diethylamino-ethanol
- salt remains in solution after cooling to 20° C.: yes
- Dissolved (50 in g in 1) at 50° C. (50° C.): Yes
- Mass uptake (DVS) [1]: 12.1% (stepwise; reversible)

Compound: 3β-arachidylamido-7α,12α-dihydroxy-5β-cholan-24-oic acid lysine salt [L-Lysine]
- Dissolved (50 in g in 1) at 50° C. [10]: No
- Cmax ([2]; mean ± standard error): 7294.2 ± 5463.0 (5) ng/mL
- AUC(0-t) [2, 11]: 26460.3 ± 9415.5 (5) hr × ng/mL
- AUC/dose [2, 11]: 270.0 ± 99.0 (5) hr × ng × kg/mL × mg
- t1/2 [2, 11]: 5.2 ± 1.0 (5) hr
- Tmax ([2]; 100 mg/kg): 2.0 (5) [2-4] hr
- Mass uptake (DVS) [1, 12]: 23.1% (stepwise, reversible)
- fill weight of one 00 size capsule [3]: 0.33 gram

Compound: CCCCCCCCCCCCCCCCCCCC(=O)N[C@H]1CCC2(C)C(CC(O)C3C2C[C@H](O)C2(C)C(C(C)CCC(=O)O)CCC32)C1 (stereo in doubt) [Aramchol (free acid), 3β-arachidylamido-7α,12α-dihydroxy-5β-cholan-24-oic acid, reference compound]
- solubility ([4]; Acetate buffer pH 4.5, 24 h, 37° C.): Not soluble
- solubility [4, 13]: Not soluble
- solubility ([4]; HCl buffer pH 1.2, 24 h, 37° C.): Not soluble
- solubility [4, 14]: Not soluble
- solubility ([4]; Saline pH 5.5, 24 h, 37° C.): Not soluble
- solubility at 24 h ([4]; phosphate buffer, pH 6.5, 24 h): < 1 µg/mL
- solubility at 30 min [4, 15]: 50 µg/mL (≈ 71.2 µM)
- solubility at 24 h ([4]; FaSSIF (pH 6.5), 24 h, 37° C.): 130 µg/mL (≈ 185 µM)
- solubility at 30 min [4, 16]: 660 µg/mL (≈ 940 µM)
- solubility at 24 h ([4]; FeSSIF (pH 5.0), 24 h, 37° C.): 310 µg/mL (≈ 442 µM)
- stability [5]: no significant changes to any parameters
- Half-life [2, 17]: 4.5 h
- AUC(0-t) [2, 18]: 12.1 ± 3.63 µg·h/mL
- Tmax [2, 19]: 4 h
- Cmax [2, 20]: 1360 ± 359 ng/mL
- AUC/dose [2, 11]: 124.2 ± 38.9 (5) hr × ng × kg/mL × mg
- Bulk density (Bulk and tapped density): 0.15 g/mL
- Tapped density (Bulk and tapped density): 0.17 g/mL
- solubility ([6]; FeSSIF, pH 5, fessif, read-out: max solubility in FeSSIF): 660 µg/mL (≈ 940 µM)
- solubility ([6]; aqueous buffer, buffer pH 6.0, read-out: solubility in buffer at pH 6.0): < 1 µg/mL
- AUC0-12 h/AUCinf (in vivo): 0.97
- Ka (in vivo): 0.234 h⁻¹
- V (in vivo): 16893
- clearance (in vivo): 6.82 mL/min
- AUC (in vivo; 100 mg): 901 µg·h/mL
- AUC(0-inf) (in vivo; AUCinf D1): 241 µg·h/mL
- AUC(0-inf) (in vivo; AUCinf from day 11 onwards): 1130 µg·h/mL
- Half-life (in vivo; po, 100 mg, Half-life): 25.9 h
- fill weight of one 00 size capsule [3]: 0.15 gram
- AUC [7]: 114 µg·h/mL
- AUCss 0-12 h ([8]; BID for 10 days): 53 µg·h/mL
- Cavg ([8]; BID for 10 days): 4154 ng/mL
- AUC ([8]; human, blood, BID): 53 µg·h/mL

Compound: CCCCCCCCCCCCCCCCCCCC(=O)NC1CCC2(C)C(C1)CC(O)C1C2CC(O)C2(C)C(C(C)CCC(=O)O)CCC12.N (stereo not drawn) [Ammonia]
- Dissolved (50 in g in 1) at 50° C.: No
- salt remains in solution after cooling to 20° C.: no
- Mass uptake (DVS) [1]: 5.4% (stepwise; reversible)

Compound: c1ccc(CNCCNCc2ccccc2)cc1 [Benzathine]
- Dissolved (50 in g in 1) at 50° C. [10]: No

Compound: CN(C)CCO [Deanol]
- Dissolved (50 in g in 1) at 50° C. [10]: Yes
- salt remains in solution after cooling to 20° C. (water, cooled to 20° C.): yes
- Mass uptake (DVS) [1, 12]: 17.3% (stepwise; reversible)

Compound: CCNCC [Diethylamine]
- Dissolved (50 in g in 1) at 50° C. [10]: Yes
- salt remains in solution after cooling to 20° C. (water, cooled to 20° C.): no
- Mass uptake (DVS) [1, 12]: 14.8% (stepwise; reversible)

Compound: NCCO [Ethanolamine]
- Mass uptake (DVS) [1, 12]: 13.2% (stepwise; reversible)

Compound: CCCCCCCCCCCCCCCCCCCC(=O)N[C@H]1CC[C@@]2(C)[C@@H](C1)C[C@@H](O)[C@@H]1[C@@H]2C[C@H](O)[C@]2(C)[C@@H]([C@H](C)CCC(=O)O)CC[C@@H]12 [Tromethamine, 3β-arachidylamido-7α,12α-dihydroxy-5β-cholan-24-oic acid tromethamine salt]
- solubility [4, 13]: Gel
- solubility ([4]; Demi-Water (pH 7.8), 24 h, 37° C., listed as tromethamine salt): turned into gets
- solubility [4, 15]: Gel
- solubility ([4]; FaSSIF (pH 6.5), 24 h, 37° C.): Gel
- solubility [4, 16]: Gel
- solubility ([4]; FeSSIF (pH 5.0), 24 h, 37° C.): Gel
- solubility ([4]; PBS pH 7.4, 24 h, 37° C.): Gel
- solubility ([4]; Phosphate buffer pH 6.5, 30 min, 37° C.): Gel
- solubility ([4]; Phosphate buffer pH 6.5, 24 h, 37° C.): Gel
- solubility [4, 14]: Gel
- solubility at 30 min ([4]; aqueous buffer, PBS pH 7.4, 30 min, 37° C.): 23000 µg/mL
- solubility at 30 min ([4]; aqueous buffer, Phosphate buffer pH 7.0, 30 min, 37° C.): 29400 µg/mL
- solubility at 30 min ([4]; saline or isotonic, Saline pH 5.5, 30 min, 37° C.): 30 µg/mL
- solubility at 30 min ([4]; simulated gastric fluid, HCl buffer pH 1.2, 30 min, 37° C.): 20 µg/mL
- solubility at 24 h ([4]; simulated gastric fluid, HCl buffer pH 1.2, 24 h, 37° C.): 290 µg/mL
- solubility at 30 min ([4]; Demi-Water (pH 7.8), 30 min, 37° C.): 45000 µg/mL
- Dissolved (50 in g in 1) at 50° C. [10]: No
- solubility at 2 h (physchem): > 50000 µg/mL
- Half-life [2, 17]: 6.5 ± 2.4 h
- AUC(0-t) [2, 18]: 18.6 ± 2.28 µg·h/mL
- Tmax [2, 19]: 2 h
- Cmax [2, 20]: 2250 ± 208 ng/mL
- AUC/dose [2, 11]: 184.7 ± 22.7 (4) hr × ng × kg/mL × mg
- Mass uptake (DVS) [1, 12]: 9.4% (stepwise; reversible)
- pH of solution ([9]; after solubility test in water, XRPD: Crystalline): 8
- solubility ([9]; XRPD: Crystalline): 32000 to 95000 µg/mL
- solubility ([9]; XRPD: Poorly crystalline): < 11000 µg/mL
- fill weight of one 00 size capsule [3]: 0.31 gram

Compound: Choline
- Dissolved (50 in g in 1) at 50° C.: Yes
- salt remains in solution after cooling to 20° C.: yes

Compound: Diethanolamine
- Dissolved (50 in g in 1) at 50° C. [10]: Yes
- salt remains in solution after cooling to 20° C. (water, cooled to 20° C.): yes
- Mass uptake (DVS) [1, 12]: 6.9% (stepwise; reversible)

Compound: L-Arginine
- Dissolved (50 in g in 1) at 50° C. [10]: Yes
- salt remains in solution after cooling to 20° C. (water, cooled to 20° C.): no
